According to a melting point compilation (Tetko et al.; mined from patent text by program, amines drawn as free bases though some values may be those of a salt):

SMILES	melting point [°C]
Cc1cccc(-n2nc(C(N)=O)nc2-c2ccccc2)c1	142 to 143
COc1cc2ncnc(N3CCC(CCN4C=CC=NS4(=O)=O)CC3)c2cc1OC	176 to 178
CCCCCCn1c(=O)c(=O)[nH]c2c3ccccc3ccc21	196
CCS(=O)(=O)Nc1cnc(N2CCC(C(=O)O)CC2)nc1NCc1ccccc1	205
Cc1cc(N(C)S(=O)(=O)c2cccs2)c2[nH]c(C3=NCC(CNC(=O)OCc4ccccc4)S3)cc2c1 (stereo not given)	160
c1c2c(cc3c1CCC3)CCC2	35 to 36.2
COc1ccc(-c2[nH]nc3c2C(=O)c2c(NC(=O)CN4CCC(C(N)=O)CC4)cccc2-3)cc1	> 300
CCCCCCCCCCCCCCCCCCSc1ccc(O)cc1	95
Nc1ncnc2c1ncn2Cc1nc2ccc(Cl)cc2c(=O)n1-c1ccccc1Cl	294 to 295
CCCOc1ccc(C2=NN(C(=O)Nc3ccc(C(F)(F)F)cc3)CC2N(CCC)C(=O)OCC(Cl)(Cl)Cl)cc1 (stereo not given)	162 to 163
Nc1cccc(SC2SCC(O)C(O)C2O)c1 (stereo not given)	128 to 132
Cc1nn(-c2ccc(C(F)(F)F)cn2)cc1COc1cc(CO)n(C)n1	128 to 129
COc1cc(OC)nc(Nc2ncccc2C(=O)OCc2ccccc2)n1	128 to 131
OCCCCCCc1ccc(OCc2coc(/C=C/c3ccccc3)n2)cc1	94 to 95
COC(=O)c1cccc(C(=O)c2[nH]c3cc(Cl)ccc3c2N)c1	187 to 189
ClCCC1(CCCl)c2ccccc2Sc2ccccc21	61 to 62
CC(=O)N1CCC(CCC(=O)c2ccc3c(c2)CCO3)CC1	93 to 95
O=C(NCC1CC1)c1ccc(-c2ccc3nnn(Cc4ccc5ncccc5c4)c3n2)cc1F	120 to 122
O=C(Cc1ccc(Cl)c(Cl)c1)N1CCCC(N2CCCC2)C1 (stereo not given)	134 to 135
OC1CCCCC1n1c(Br)nc2cc(Cl)c(Cl)cc21 (stereo not given)	186 to 188

SMILES	melting point [°C]
COc1ccc2c(C=O)cccc2c1C(F)(F)F	92 to 94
N#CN1CCC(c2n[nH]c3cc(F)ccc23)CC1	143 to 145
Cc1ccc(S(=O)(=O)NCCCC(NS(=O)(=O)c2ccc(-c3ccc(Cl)cc3)cc2)C(=O)O)cc1 (stereo not given)	62
Cn1cnc2c(Nc3ccc(Cl)cc3)nc(-c3ccccn3)nc21	185 to 190
CN(C)c1ccc(C(=O)NC2CCN(C(c3ccccc3)c3ccccc3)CC2)c(N)c1	118
CCn1cc(-c2c(-c3ccccc3F)nn3ccncc23)ccc1=O	173 to 174
Nc1ccc(C23CC(C2)C(=O)N(C2CCCCC2)C3=O)cc1	139
O=c1cc(-c2ccncc2)nc2n1CCC(c1ccncc1)N2 (stereo not given)	268 to 270
N#Cc1ccc(-c2ccc(NCCCC3CCCCO3)cc2)cc1 (stereo not given)	111 to 113
FC(F)(F)c1cc(Cl)c(-n2ncc(-c3nc(C(F)(F)F)c[nH]3)n2)c(Cl)c1	262 to 264
CCc1nn(C2CCCC2)c2nc(COS(C)(=O)=O)nc(OS(C)(=O)=O)c12	114 to 116
CCOC(=O)c1cc(NS(=O)(=O)c2ccc(Cl)nc2)ccc1Oc1cncc(Cl)c1	166 to 168
Fc1ccccc1Cn1cnc2c(Nn3cccc3)ncnc21	204 to 206
CCC(=O)OCC12CCC(=O)C=C1CCC1C2CCC2(C)C(OC(=O)CC)CCC12 (stereo not given)	82 to 84
O=C1C(CSC(=O)c2ccccc2)=C(CSC(=O)c2ccccc2)C(=O)C(CSC(=O)c2ccccc2)=C1CSC(=O)c1ccccc1	224 to 226
CCCCN(Cc1ccc(-c2ccccc2-c2nc(=O)o[nH]2)cc1)c1ncncc1C(=O)OCC	65 to 69
NC(=O)COc1ccc(OCCn2ccnc2)cc1	123 to 124
CSc1ccc(-c2cc(C(=O)O)nn2-c2ccc(F)cc2)cc1	199 to 200
COc1ccc2c(c1)C(c1ccc(OCCN3CCCCC3)cc1)c1c-2ccc2cc(OC)ccc12 (stereo not given)	162 to 164
CCCCc1nc2ccccn2c(=O)c1-c1ccc(NC(=O)[C@@H]2CCCN2C(=O)OC(C)(C)C)cc1	179 to 187

SMILES	melting point [°C]
COC(=O)c1ccc2c(=O)[nH]c(=O)n(CCCCN3CCC(OC(c4ccccc4)c4ccccc4)CC3)c2c1	192 to 194
COC(=O)[C@@H]1[C@@H](O[Si](C)(C)C(C)(C)C)CCN1C(=O)Nc1ccc(C#N)c(Cl)c1C	123 to 125
O=S(=O)(/C=C/c1ccc(F)cc1)Nc1ccc(Cl)cc1	126 to 128
COCOc1c(N=Nc2ccc(OC)cc2)cc(OC)cc1C(C)(C)C	102 to 103
CCNc1nc(NCc2ccc(NC(=O)C3CCN(Cc4ccccc4)CC3)cc2)c2ccc(C)cc2n1	55
Nc1cc(Cl)cc2cccnc12	70 to 73
COc1ccn(-c2ccc(C3CCN(S(=O)(=O)C(C)(C)C(=O)NO)CC3)cc2C)n1	172 to 173
Cc1cc(-c2ccc(C(F)(F)F)cc2)cc(-c2ccnc(-c3cccc(N)c3)n2)n1	167
Cc1nn(C)c2cc(-c3ccc(F)cc3)nc(-c3ccc4c(c3)OCO4)c12	166 to 168
FC(F)Sc1ccc(-n2cnnn2)cc1	94 to 97
COc1ccc(C(=O)Nc2ccc(-c3ccc(C=O)cc3C)c(C)c2)cc1CCCN(C)C	63 to 66
Nc1ccc(-c2ccc(C(F)(F)F)cc2)cn1	130
O=C(O)Cc1csc(NC(=O)C(F)(F)F)n1	117 to 120
COc1ccc(C(=O)N(C(=O)c2ccc(OC)cc2)c2nc3ccc([N+](=O)[O-])cc3c(NCc3ccccc3)c2C#N)cc1	145 to 148
OCCCCCCOc1ccccc1	69 to 74
Cc1ccc(S(=O)(=O)N2CCC[C@H]2C(=O)N[C@@H](Cc2ccc(OCCN3CCOCC3)cc2)C(=O)O)cc1	99 to 101
CCn1ccc(=O)[nH]c1=O	150
O=c1c2cc(Cl)ccc2nc(CSc2ncnc3[nH]cnc23)n1-c1ccccc1Cl	237 to 238

Second part, the compound after the results:

melting point [°C]	SMILES
126 to 129	CCOC(=O)c1ccn2ncc(-c3cccc(Cl)c3)c2n1
126 to 127	CN(Cc1nc(-c2cc(C(C)(C)C)c(O)c(C(C)(C)C)c2)cs1)C(=O)OC(C)(C)C
216 to 218	COc1ccc(Cc2cc3ccccc3c(=O)[nH]2)cc1
75 to 78	O=Cc1ccc(OCCN2C(=O)COc3ccccc32)cc1
> 300	O=C(O)c1ccc2oc3ccncc3c(=O)c2c1
204 to 206	CC1(C)OC(c2ccc(S(C)(=O)=O)cc2)=C(c2cc3ccccc3s2)C1=O
207 to 210	O=P(O)(O)Cc1cc(Cl)c(Oc2ccc(O)c(Cc3ccc(F)cc3)c2)c(Cl)c1
126 to 128	CCOC(=O)c1cc2ccccc2n1-c1ccc(OC)c(OC)c1
106 to 108	COCCOc1ccccc1OS(=O)(=O)NC(=O)Nc1nc(OC)cc(OC)n1
184 to 186	Cc1ccc(C2(CC(=O)O)CNC(=O)C2)cc1 (stereo not given)
170 to 172	CCN(CC)CCC(=O)C1Nc2cnccc2N(C)n2cccc21 (stereo not given)
52 to 54	CC(=O)SCC(CCc1cccc(C)c1)C(=O)O (stereo not given)
112 to 114	CCOC(=O)C1=C(C)N=C(NC)N(C(=O)OCC)C1c1cccc([N+](=O)[O-])c1 (stereo not given)
125 to 127	Cc1c(C)c2c(c(C)c1Br)OC(C)(C)C2=O
58.7	COc1cc(C(C)=O)ccc1OC(C)=O
154 to 156	COc1ccc(CN2CCN(NC(=O)c3cc(Cl)c(N)cc3OC)CC2)cc1
197 to 198	Cn1cc(-c2cnccn2)cc(Cl)c1=O
229	CS(=O)(=O)c1cc(CCC(=O)O)nc(-c2nc(=O)c3ccc(Cl)cc3s2)c1
251 to 254	Cc1ccc(N2C(=O)c3ccccc3C2=O)c(O)c1
135 to 138	COc1ccc2c(c1)-c1noc(O)c1CC2
179 to 180	COc1ccc(CS(=O)(=O)c2cc3ccc(OC)cc3oc2=O)cc1

melting point [°C]	SMILES
170 to 172	CC#CCOc1ccc(S(=O)(=O)N(C)C(C(=O)O)c2ccc(Cl)cc2)cc1 (stereo not given)
81 to 82	Cc1cc(O)c(SCCC(C)C)c(=O)o1
118 to 120	Cc1csc(N)c1S(=O)(=O)NC(=S)NC(C)C
112 to 114	CCOC(=O)C(=CNc1ccc2nccnc2c1)C(=O)OCC
160 to 163	Cc1cc2c(cc1O)C(C1(C3CCCc4ccccc43)CC1)N(C)CC2 (stereo not given)
103 to 105	CCOC(=O)c1cc(-c2ccccn2)[nH]n1
153 to 154	CC(C)(C)c1ccc(NC(=O)N2CCC3(CC2)CC(CCc2ccccc2)=NO3)cc1
138	CCOC(=O)CC1CC2C(CCC3(C)C(=O)CCC23)c2ccc(O)cc21 (stereo not given)
163 to 166	CC1Oc2c(Cc3ccccc3)cc(C=O)cc2NC1=O (stereo not given)
149 to 156	CN(C)C(=O)C(C)(C)Sc1nc2ccccc2cc1-c1ccccc1
117 to 119	COC(=O)c1nc2cc(Cl)cc(C)c2c(O)c1C(=O)OC
106 to 108	CC(=O)NC1Cc2ccc(OC(=O)CCl)cc2C1 (stereo not given)
141 to 142	CC#CC(C)(C)NC(=O)C(Oc1cc(Cl)nc(Cl)c1)SC (stereo not given)
119 to 120	CCOC(=O)Cc1c2n(c3ccc(F)cc13)C(c1ccc(SC)cc1)=NCC2
174 to 175	COC(C)c1ccc(-c2ccc(O)cc2)cc1 (single isomer, unassigned; (+))
242 to 244	Cc1sc(C)c2c(=O)n3cc(C#N)ccc3nc12
107 to 109	C=C(C)n1c(=O)n(CCN(C)Cc2ccccc2)c2ccccc21
170 to 171	Cc1[nH]nc(C(=O)NC2CCCC2)c1NC(=O)c1cnccn1
104 to 108	Cc1ccc(C)c(OCc2ccccc2C(C#N)=NOC(F)F)c1
100	CC(C)c1ccc(S(=O)(=O)n2c(CBr)cc3cc(C(F)(F)F)ccc32)cc1
233	COc1cc(CN2CCN(c3ccc(C(=O)NC4CC4)cc3F)CC2)cc2c1OC(C)C(=O)N2 (stereo not given)
